Reference: patent publication US6849732B2, “Metalloproteinase inhibitors, pharmaceutical compositions containing them and their pharmaceutical uses, and methods and intermediates useful for their preparation” (Agouron Pharmaceuticals, Inc., priority 1995, dated 2005)
Structures can show the parent of a compound that is named as a salt. Where two headings read alike, the source gives them in different places.

Tests used:
gelatinase A (HG72kD) = target: T1, gelatinase A (HG72kD) (Homo sapiens, UniProt P08253); assay: MCA fluorogenic enzyme assay, competitive inhibition analysis (Ki,app), gelatinase A; assay type: biochemical; conditions: MCA peptide substrate, 37° C., pH 7.5, read-out: Enzyme Inhibition Constants (K1) HG72kD
T1 sequence (P08253 110-660): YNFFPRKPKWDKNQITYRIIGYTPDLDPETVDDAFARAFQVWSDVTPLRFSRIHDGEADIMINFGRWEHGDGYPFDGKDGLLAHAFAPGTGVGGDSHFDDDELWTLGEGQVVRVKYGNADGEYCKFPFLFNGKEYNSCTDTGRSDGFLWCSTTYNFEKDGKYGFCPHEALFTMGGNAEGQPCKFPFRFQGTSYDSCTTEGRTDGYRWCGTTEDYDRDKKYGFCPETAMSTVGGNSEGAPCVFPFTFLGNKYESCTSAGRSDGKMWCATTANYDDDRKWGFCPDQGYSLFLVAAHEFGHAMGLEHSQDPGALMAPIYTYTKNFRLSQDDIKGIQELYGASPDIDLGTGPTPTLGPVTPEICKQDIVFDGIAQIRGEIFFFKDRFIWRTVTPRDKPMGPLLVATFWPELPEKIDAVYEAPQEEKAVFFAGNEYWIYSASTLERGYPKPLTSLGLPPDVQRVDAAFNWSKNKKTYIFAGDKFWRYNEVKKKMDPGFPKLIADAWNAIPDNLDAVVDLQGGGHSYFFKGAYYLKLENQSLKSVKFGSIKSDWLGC

Coll3 = Coll3 (Homo sapiens, UniProt P45452); assay: MCA fluorogenic enzyme assay, competitive inhibition analysis (Ki,app), Coll3; assay type: biochemical; conditions: MCA peptide substrate, 37° C., pH 7.5, read-out: Enzyme Inhibition Constants (K1) Coll3
stromelysin (HSLN) = stromelysin (HSLN) (Homo sapiens, UniProt P08254); assay: MCA fluorogenic enzyme assay, competitive inhibition analysis (Ki,app), stromelysin; assay type: biochemical
matrilysin (Matr.) = target: T2, matrilysin (Matr.) (Homo sapiens, UniProt P09237); assay: MCA fluorogenic enzyme assay, competitive inhibition analysis (Ki,app), matrilysin; assay type: biochemical; conditions: MCA peptide substrate, 37° C., pH 7.5, read-out: Enzyme Inhibition Constants (K1) Matr.
T2 sequence (P09237 95-267): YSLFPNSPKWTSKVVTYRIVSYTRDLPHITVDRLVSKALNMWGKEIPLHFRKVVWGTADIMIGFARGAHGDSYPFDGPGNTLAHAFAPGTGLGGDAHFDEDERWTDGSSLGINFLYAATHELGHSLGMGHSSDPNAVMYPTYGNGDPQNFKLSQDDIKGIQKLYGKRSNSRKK
Procedure: Stromelysin enzymatic activity was measured using a modified version of a resonance energy transfer fluorogenic assay as described in FEBS, vol. 296(3), p. 263 (1992), the disclosure of which is incorporated herein by reference. The MCA-peptide substrate is shown below. The fluorescent MCA group is quenched by resonance energy transfer to the 2,4-dinitrophenyl group. Matrix metalloproteinases cleave this substrate at the Gly-Leu bond. Cleavage results in the loss of energy transfer and a large increase in fluorescence of the MCA group. [drawing 56] 7-methoxycoumarin-4-yl-acetyl-pro-leu-gly-leu-3-(2,4-dinitrophenyl)-L-2,3-diaminoproprionyl-ala-arg-NH2
The MCA assay was performed at 37° C. in buffer containing 50 mM Tricine (pH 7.5), 10 mM CaCl2, 200 mM NaCl, and 1% DMSO with the following concentrations of matrix metalloproteinases: 1.4 nM stromelyin, 0.063 nM matrilysin, and 0.030 nM gelatinase A. The concentration of MCA substrate was 10 or 20 μM in a final volume of 1.6 mL. Fluorescence data was collected with Perkin-Elmer LS-5B and LS-5B spectrofluorimeters with λexcitation=328 nm and λemission=393 nm. Spectrofluorimeters were interfaced with IBM-compatible microcomputer systems.
The Km for the MCA peptide substrate with the matrix metalloproteinases is quite high and exceeds its solubility under assay conditions. Consequently, the apparent Ki (Ki,app) was determined to describe the strength of inhibition. However, in this case, Ki,app would be essentially equal to Ki since [S]<<Km. For the determination of Ki,app, the concentration of the inhibitor was varied at a constant and low concentration of substrate and the steady-state rates of fluorescence change determined. In most cases absorptive quench due to the presence of ligand was not observed. For slow-binding inhibitors, onset of inhibition curves were collected for at least 45 minutes so that equilibrium was established. Steady-state rates of fluorescence change were obtained by fitting a curve to an equation for a single exponential decay containing a linear phase. The fitted value of the linear phase was taken as the steady-state rate. The steady-state rates were fitted to the Michaelis equation describing competitive inhibition by non-linear methods. Data resulting from tight-binding inhibition was analyzed, and Ki,app determined by fitting the data to the tight-binding equation of Morrison See (Biochem. Biophys. Acta, vol. 185, pp. 269-286 (1969)) by non-linear methods.

HFC = target: T3, HFC (Homo sapiens, UniProt P03956); assay: MCA fluorogenic enzyme assay, competitive inhibition analysis (Ki,app), HFC; assay type: biochemical; conditions: MCA peptide substrate, 37° C., pH 7.5, read-out: Enzyme Inhibition Constants (K1) HFC
T3 sequence (P03956 100-469): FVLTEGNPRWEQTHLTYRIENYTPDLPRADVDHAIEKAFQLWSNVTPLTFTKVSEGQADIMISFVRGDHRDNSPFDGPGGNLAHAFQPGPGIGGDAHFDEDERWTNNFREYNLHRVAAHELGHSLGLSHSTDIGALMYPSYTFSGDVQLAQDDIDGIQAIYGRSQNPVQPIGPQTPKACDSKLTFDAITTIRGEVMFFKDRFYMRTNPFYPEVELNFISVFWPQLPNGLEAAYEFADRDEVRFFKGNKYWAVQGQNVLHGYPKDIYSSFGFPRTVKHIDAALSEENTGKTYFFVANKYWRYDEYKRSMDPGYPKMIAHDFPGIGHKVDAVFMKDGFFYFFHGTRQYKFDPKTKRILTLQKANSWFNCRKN

[1] = test system: murine Lewis lung carcinoma (NIH) tumor line; assay: Tumor model: subcutaneous Lewis lung carcinoma, primary tumor growth and lung metastases; assay type: in vivo, female BDF1 mice; conditions: 50 mg/kg; for Tumor Growth Delay / % Inhibition-Lung Metastases: i.p., daily, Day 1-Day 21; for Tumor Growth Delay: delay in reaching 1000 mm^3 tumor volume between control and treated animals; for % Inhibition-Lung Metastases: metastases counted 22 days after tumor implantation
Source text: Primary subcutaneous tumors were established in female BDF1 mice by trocar inoculation of the murine Lewis lung carcinoma (NIH) tumor line. This tumor line produces spontaneous lung metastases which arise from the primary tumor. Primary tumor growth was monitored by measuring the length and width of the subcutaneous tumor using calipers; lung metastases were counted at the end of the experiment (22 days after tumor implantation) by removing the lungs and counting the lesions using a dissecting microscope. The test compound was administered daily, i.p., beginning 24 hours after tumor implantation (day 1) and continuing through day 21. Primary tumor volumes and number of lung metastases were compared to control animals using an ANOVA followed by a comparison of means using the F statistic. […] All drugs were administered at 50 mg/kg, i.p., daily, Day 1-Day 21.

[2] = Ki,app, MCA peptide substrate, 37° C., pH 7.5, read-out: Enzyme Inhibition Constants (K1) HSLN

stromelysin (HSLN), sequence (P08254 100-477): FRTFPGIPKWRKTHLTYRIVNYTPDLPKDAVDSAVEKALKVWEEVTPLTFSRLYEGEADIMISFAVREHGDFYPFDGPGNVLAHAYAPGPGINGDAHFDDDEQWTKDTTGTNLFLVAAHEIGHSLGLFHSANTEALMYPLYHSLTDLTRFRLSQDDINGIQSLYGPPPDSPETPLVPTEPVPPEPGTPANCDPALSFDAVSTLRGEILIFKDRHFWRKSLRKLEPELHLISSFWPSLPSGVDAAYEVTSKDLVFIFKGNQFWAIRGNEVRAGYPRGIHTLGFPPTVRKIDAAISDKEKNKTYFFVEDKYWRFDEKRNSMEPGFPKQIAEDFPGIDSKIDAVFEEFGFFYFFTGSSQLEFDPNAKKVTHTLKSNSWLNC

| Ki (stromelysin (HSLN)) [nM] | Compound | Ki (gelatinase A (HG72kD)) [nM] | Ki (Coll3) [nM] | Ki (stromelysin (HSLN); [2]) [nM] | Ki (matrilysin (Matr.)) [nM] | Ki (HFC) [nM] | Tumor Growth Delay [1] | % Inhibition-Lung Metastases [1] | tumor growth delay relative to control (significance, in words) ([1]; p<0.025) | number of lung metastases relative to the control (significance, in words) ([1]; p<0.05) |
| --- | --- | --- | --- | --- | --- | --- | --- | --- | --- | --- |
| – | Cn1cnc(S(=O)(=O)N2CCN(S(=O)(=O)c3ccc(Oc4ccc(Cl)cc4)cc3)[C@@H](C(=O)NO)C2)c1 [Example 12(d), 2 (R)-N-hydroxy-1-(4-(4-chlorophenoxy)benzenesulfonyl)-4-(1-methylimidazole-4-sulfonyl)-piperazine-2-carboxamide] | 0.004 | 0.006 | 0.09 | 40 | 7 | – | – | – | – |
| – | CC(C)(C)OC(=O)N1CCN(S(=O)(=O)c2ccc(Oc3ccc(C#N)cc3)cc2)C(C(=O)NO)C1 (racemic) [Example 9(c), 2(R/S)-N-hydroxy-1-(4-(4-cyanophenoxy)benzenesulfonyl)-4-(t-butoxycarbonyl)-piperazine-2-carboxamide] | 0.696 | 1.97 | 14 | 3570 | 580 | – | – | – | – |
| – | O=C(NO)[C@H]1COCCN1S(=O)(=O)c1ccc(Oc2ccc(Cl)cc2)cc1 [8(a), 3(R)-N-hydroxy-4-(4-(4-chlorophenoxy)benzenesulfonyl)-morpholine-3-carboxamide] | 0.031 | 0.021 | 0.093 | 77 | 8.9 | -0.1 days | 7.5% | – | – |
| – | CN1CCN(S(=O)(=O)c2ccc(Oc3ccc(Cl)cc3)cc2)[C@@H](C(=O)NO)C1 [Example 11(a), 2(R)-N-hydroxy-1-(4-(4-chlorophenoxy)benzenesulfonyl)-4-methyl-piperazine-2-carboxamide hydrochloride] | 0.025 | 0.02 | 0.67 | 993 | 130 | – | – | – | – |
| 0.51 | CC1(C)SCCN(S(=O)(=O)c2ccc(Oc3ccccn3)cc2)[C@H]1C(=O)NO [Example 18(b), 3(S)-N-hydroxy-4-(4-((pyrid-2-yl)oxy)benzenesulfonyl)-2,2-dimethyl-tetrahydro-2H-1,4-thiazine-3-carboxamide] | 0.202 | 0.074 | – | 70 | 12 | – | – | – | – |
| – | CS(=O)(=O)N1CCN(S(=O)(=O)c2ccc(Oc3ccc(Cl)cc3)cc2)[C@@H](C(=O)NO)C1 [Example 12(a), 2(R)-N-hydroxy-1-(4-(4-chlorophenoxy)benzenesulfonyl)-4-(methanesulfonyl)-piperazine-2-carboxamide] | 0.003 | 0.002 | 0.043 | 28 | 2.5 | – | – | – | – |
| – | CC(C)(C)OC(=O)N1CCN(S(=O)(=O)c2ccc(Oc3ccccn3)cc2)C(C(=O)NO)C1 (racemic) [Example 9(d), 2(R/S)-N-hydroxy-1-(4-(pyrid-2-yl)oxybenzenesulfonyl)-4-(t-butoxycarbonyl)-piperazine-2-carboxamide] | 0.716 | 1.64 | 17 | 2850 | 550 | – | – | – | – |
| – | 3(S)-4-(4-(4-(furan-3-yl)phenoxy)benzenesulfonyl-N-hydroxy-tetrahydro-2H-1,4-thiazine-3-carboxamide [Example 20] | 0.0017 | 0.002 | 0.06 | 0.7 | 1.4 | – | – | – | – |
| – | O=C1C[C@H](C(=O)NO)N(S(=O)(=O)c2ccc(Oc3ccccc3)cc2)CN1 [Example 15(a), 6(R)-(N-hydroxycarbamoyl)-1-(4-phenoxy)benzenesulfonyl-tetrahydropyrimidin-4-one] | 0.057 | 0.124 | 4.6 | 1300 | 210 | – | – | – | – |
| – | O=C(NO)C1C[S+]([O-])CCN1S(=O)(=O)c1ccc(Oc2ccc(F)cc2)cc1 (racemic) [Example 14(b), 1(R/S),3(R/S)-N-hydroxy-1-oxo-4-(4-(4-fluorophenoxy)benzene-sulfonyl)-tetrahydro-2H-1,4-thiazine-3-carboxamide] | 0.034 | 0.016 | 0.79 | 306 | 28 | – | – | – | – |
| – | CS(=O)(=O)N1CCN(S(=O)(=O)c2ccc(Oc3ccc(F)cc3)cc2)[C@@H](C(=O)NO)C1 [Example 12(b)] | 0.007 | 0.005 | 0.13 | 52 | 4.7 | – | – | – | – |
| – | CC(C)(C)OC(=O)N1CCN(S(=O)(=O)c2ccc(Oc3ccc(Cl)cc3)cc2)[C@@H](C(=O)NO)C1 [Example 9(a), 2(R)-N-hydroxy-1-(4-(4-chlorophenoxy)benzenesulfonyl)-4-(t-butoxycarbonyl)-piperazine-2-carboxamide] | 0.007 | 0.006 | 0.31 | 142 | – | 7.2 days (p < 0.025) | 77.6% (p < 0.05) | statistically significant | statistically significant |
| – | CC1(C)SCCN(S(=O)(=O)c2ccc(Oc3ccc(Br)cc3)cc2)[C@H]1C(=O)NO [Example 16(a), 3(S)-N-hydroxy-4-(4-(4-bromophenoxy)benzenesulfonyl)-2,2-dimethyl-tetrahydro-2H-1,4-thiazine-3-carboxamide] | 0.003 | 0.001 | 0.017 | 2.8 | 0.56 | – | – | – | – |
| – | O=C(NO)[C@H]1CNCCN1S(=O)(=O)c1ccc(Oc2ccc(F)cc2)cc1 [Example 10(b), 2(R)-N-hydroxy-1-(4-(4-fluorophenoxy)benzenesulfonyl)-piperazine-2-carboxamide hydrochloride] | 0.232 | 0.257 | 0.98 | 365 | 44 | – | – | – | – |
